From patent publication US5258385A, “β-Carboline-derived compounds, lamchart benzodiazepine-receptor ligands, having an inverse agonist and antagonist effect on benzodiazepines, and drugs containing them” (Centre National de la Recherche Scientifique (CNRS), priority 1991, dated 1993)

Tests used:
[1] = biological target: central receptors for benzodiazepines; conditions: in vitro, rat brain; read-out: IC50 binding to central receptors for benzodiazepines; cited from earlier work
[2] = system: convulsions caused by other agents such as pentylenetetrazole; conditions: cited from earlier work
[3] = anxiolytic, anti-convulsant and the like; cited from earlier work
learning and memory = conditions: cited from earlier work
[4] = system: learning and information retention; conditions: man; cited from earlier work
benzodiazepine receptor [5] = assay: Effect on current in xenopus oocyte expressing the benzodiazepine receptor (mRNA); format: cell-based
Excerpt: The effect of the lactone on the benzodiazepine receptor expressed was first expressed, using the corresponding messenger RNA, in xenopus oocyte.

benzodiazepine receptor [6] = assay: In vivo behavior and antagonism of diazepam sedation in mice; conditions: sc
Experimental: The antagonist properties of the lactone were also assessed in vivo in mice.

benzodiazepine receptor [7] = assay: In vitro binding to benzodiazepine receptor, displacement of 3H-flunitrazepam, rat brain cortical membranes

## CCOC(=O)c1cc2c(cn1)[nH]c1ccccc12 [β-CCE, ethyl ester of β-carboline-3-carboxylic acid]
[1]
  IC50: 4 nM
[2]; in vivo
  in vivo pharmacological effects compared with benzodiazepines: opposed to those of benzodiazepines
[2]; mice
  proconvulsant effect: proconvulsant in mice which facilitates the convulsions caused by other agents such as pentylenetetrazole

## CCOC(=O)c1ncc2[nH]c3cccc(OCc4ccccc4)c3c2c1COC [ZK 91296]
[3]
  properties in vivo compared with diazepam: properties similar to those of diazepam in vivo

## COC(=O)c1cc2c(cn1)[nH]c1ccccc12 [β-CCM]
Learning and memory; in vivo
  effect on learning and memory: positive effect on learning and memory
Learning and memory; prevented testing in man
  convulsant activity: highly convulsant activity

## CCOC(=O)c1ncc2[nH]c3cccc(OC(C)C)c3c2c1C [ZK 93426]
[4]
  learning and information retention: improve learning and information retention in man

## O=C1OC(CO)c2c1ncc1[nH]c3ccccc3c21 (stereo not drawn) [Compound No. 3, 10-Hydroxymethylbutanolide[2.3-]-β-Carboline]
Benzodiazepine receptor [5]; lactone (10^6 M [sic]) simultaneously with 10^5 M (so in the source) GABA
  effect on GABA-generated current in oocyte: no increase or decrease was observed in the current
Benzodiazepine receptor [5]; lactone (10^6 M [sic]), diazepam (10^6 M [sic])
  inhibition of the increase in current generated by diazepam: inhibits substantially the increase in the current
Benzodiazepine receptor [5]; with GABA
  receptor profile in oocyte test: behaves, in this test, like an antagonist of the benzodiazepine receptor
Benzodiazepine receptor [6]; 5 mg/kg
  convulsant or sedative effect in mice: neither convulsant nor sedative
  effect on behavior of mice: produces no effect on their behavior
Benzodiazepine receptor [6]; compound 5 or 10 mg/kg, diazepam 7.5 mg/kg
  antagonism of sedation caused by diazepam: completely avoided
Benzodiazepine receptor [7]; times higher than diazepam
  affinity relative to diazepam (20 nM): 100 times
Benzodiazepine receptor [7]; times higher than β-CCE
  affinity relative to β-CCE (4 nM): 20 times

## CCOC(=O)c1ncc2[nH]c3ccc(OCc4ccccc4)cc3c2c1COC [ZK 93423]
[3]
  properties in vivo compared with diazepam: properties similar to those of diazepam in vivo
